According to US20180055844A1 (Celgene Corporation, priority 2011, published 2018):

Tests used:
Format in all cases: cell-based
SK-HEP-1 = experiment: Invasion of solid tumor cells; conditions: Homo sapiens, SK-HEP1; SK-HEP-1 (VEGF), hepatocellular
MCF-7 = experiment: Solid tumor cell colony formation; conditions: Homo sapiens, MCF7
SNB-19 = experiment: Invasion of solid tumor cells; conditions: Homo sapiens; SNB-19 (PDGF), glioblastoma

For `Cc1nc2cccc(N)c2c(=O)n1C1CCC(=O)NC1=O` (stereo not drawn) [compound of Formula I, 3-(5-amino-2-methyl-4-oxo-4H-quinazolin-3-yl)-piperidine-2,6-dione], the IC50 (SK-HEP-1) was 6.1 nM, the inhibition at 10 µM (MCF-7) was 1.4% and the IC50 (SNB-19) was 160 nM.
